Measurements from patent US11053248B2, “[1,2,4]triazolo[1,5-a]pyrimidine compounds as PDE2 inhibitors” (Janssen Pharmaceutica NV, priority 2016, dated 2021).
Where “and” joins values, the source holds several entries; their conditions need not be identical. Equal values may be shown once. Read-outs that look alike come from different tables or passages of the source.

Columns and labels:
hPDE10A2 = hPDE10A2 (Homo sapiens, UniProt Q9Y233); experiment: biochemical; conditions: for IC50: 60 nM cAMP substrate, read-out: hPDE10A2 pIC50 (converted); for Emax: read-out: hPDE10A2 Emax
Protocol: Rat recombinant PDE10A (rPDE10A2) was expressed in Sf9 cells using a recombinant rPDE10A baculovirus construct. Cells were harvested after 48 h of infection and the rPDE10A protein was purified by metal chelate chromatography on Ni-sepharose 6FF. Tested compounds were dissolved and diluted in 100% DMSO to a concentration 100 fold of the final concentration in the assay. Human recombinant PDE10A […] was expressed in Sf9 cells using a recombinant hPDE10A baculovirus that was made and amplified in house. Cells were harvested after 72 h of infection and the hPDE10A protein was purified by metal chelate chromatography on Ni-sepharose. Compound dilutions (0.4 μl) were added in 384 well plates to 20 μl of incubation buffer (50 mM Tris pH 7.8, 8.3 mM MgCl2, 1.7 mM EGTA). […] of rPDE10A or hPDE10A enzyme in incubation buffer was added and the reaction was started by addition of 10 μl substrate to a final concentration of 60 nM cAMP and 0.008 μCi ^3H-cAMP. The reaction was incubated for 60 minutes at room temperature. […] After sedimentation of the beads during 30 minutes the radioactivity was measured in a Perkin Elmer Topcount scintillation counter and results were expressed as cpm. For blanc values the enzyme was omitted from the reaction and replaced by incubation buffer. Control values were obtained by addition of a final concentration of 1% DMSO instead of compound.

hPDE3B = experiment: In vitro assay PDE3 (SPA, 3H-cAMP); format: biochemical, human; parameters: hPDE3B Emax: unit not given here; conditions: for hPDE3B pIC50: 0.4 μM cAMP substrate
hPDE2A = target: T1, hPDE2A (Homo sapiens, UniProt O00408); experiment: In vitro assay PDE2A (SPA, 3H-cGMP); format: biochemical; conditions: for Emax: read-out: hPDE2A Emax
T1 construct: made in house; host or cells: Sf9 insect cells (baculovirus)
Protocol: Human recombinant PDE2A (hPDE2A) was expressed in Sf9 cells using a recombinant rPDE10A baculovirus construct. Cells were harvested after 48 h of infection and the hPDE2A protein was purified by metal chelate chromatography on Ni-sepharose 6FF. Tested compounds were dissolved and diluted in 100% DMSO to a concentration 100 fold of the final concentration in the assay. Compound dilutions (0.4 μl) were added in 384 well plates to 20 μl of incubation buffer (50 mM Tris pH 7.8, 8.3 mM MgCl2, 1.7 mM EGTA). 10 μl of hPDE2A enzyme in incubation buffer was added and the reaction was started by addition of 10 μl substrate to a final concentration of 10 μM cGMP and 0.01 μCi ^3H-cGMP. The reaction was incubated for 45 minutes at room temperature. […] After sedimentation of the beads during 30 minutes the radioactivity was measured in a Perkin Elmer Topcount scintillation counter and results were expressed as cpm. For blanc values the enzyme was omitted from the reaction and replaced by incubation buffer. Control values were obtained by addition of a final concentration of 1% DMSO instead of compound.

PDE2A = target: T2, PDE2A (Rattus norvegicus, UniProt Q01062); experiment: PDE2 occupancy by ex-vivo autoradiography with [3H]B-17a; format: in vivo
T2 construct: from tissue; host or cells: rat brain striatal sections (ex vivo)
T2 sequence (Q01062 1-928): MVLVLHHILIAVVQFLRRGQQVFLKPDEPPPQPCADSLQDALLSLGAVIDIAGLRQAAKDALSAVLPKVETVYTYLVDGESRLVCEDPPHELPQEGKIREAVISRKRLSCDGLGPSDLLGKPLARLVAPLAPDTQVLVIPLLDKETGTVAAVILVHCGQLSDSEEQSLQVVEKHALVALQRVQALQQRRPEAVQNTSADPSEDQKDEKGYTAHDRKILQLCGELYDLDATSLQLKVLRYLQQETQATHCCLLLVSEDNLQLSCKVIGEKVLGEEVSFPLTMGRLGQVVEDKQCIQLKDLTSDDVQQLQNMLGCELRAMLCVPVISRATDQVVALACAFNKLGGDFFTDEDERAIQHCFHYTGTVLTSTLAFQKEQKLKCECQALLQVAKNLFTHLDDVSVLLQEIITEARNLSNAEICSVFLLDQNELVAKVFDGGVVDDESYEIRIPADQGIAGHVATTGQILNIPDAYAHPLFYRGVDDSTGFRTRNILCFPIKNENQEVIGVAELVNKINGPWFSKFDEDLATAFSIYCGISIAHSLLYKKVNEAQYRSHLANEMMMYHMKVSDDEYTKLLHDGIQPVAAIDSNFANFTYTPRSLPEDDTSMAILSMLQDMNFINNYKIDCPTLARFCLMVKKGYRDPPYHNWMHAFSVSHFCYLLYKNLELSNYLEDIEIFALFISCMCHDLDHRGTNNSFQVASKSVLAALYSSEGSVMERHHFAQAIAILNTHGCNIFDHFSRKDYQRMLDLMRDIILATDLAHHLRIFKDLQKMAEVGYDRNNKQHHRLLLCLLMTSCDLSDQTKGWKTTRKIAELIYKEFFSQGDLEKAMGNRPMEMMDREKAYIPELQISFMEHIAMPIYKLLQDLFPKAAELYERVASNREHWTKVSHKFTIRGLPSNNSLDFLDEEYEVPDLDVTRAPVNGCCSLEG
Protocol: PDE2 Occupancy by Test Compounds Methods
Brains were immediately removed from the skull and rapidly frozen in dry-ice cooled 2-methylbutane (−40° C.).
After thawing, sections were dried under a cold stream of air and incubated for one minute with 30 nM [^3H]B-17a in Tris-HCl (50 mM, pH7.4) containing 0.3% BSA. Brain sections from drug-treated and vehicle-treated animals were incubated in parallel. […] After incubation, the excess of [^3H]B-17a was washed off in ice-cold buffer 2 times 10 minutes, followed by a quick dip in distilled water. The sections were then dried under a stream of cold air.
Brain sections were loaded in a β-imager (Biospace, Paris) for 4 h and radioactivity emerging from delineated brain area was quantified using the Beta vision program (Biospace, Paris). Specific binding was determined as the difference between total binding in the striatum and non-specific binding in the cerebellum. Percentage receptor occupancy of the drug administered to the animal corresponded to 100% minus the percentage receptor labeled in the treated animal. For the determination of ED50-values, the percentage of receptor occupancy was plotted against dose and the sigmoidal log dose-effect curve of best fit was calculated by non-linear regression analysis, using the GraphPad Prism program.

T1 sequence (O00408 whole entry): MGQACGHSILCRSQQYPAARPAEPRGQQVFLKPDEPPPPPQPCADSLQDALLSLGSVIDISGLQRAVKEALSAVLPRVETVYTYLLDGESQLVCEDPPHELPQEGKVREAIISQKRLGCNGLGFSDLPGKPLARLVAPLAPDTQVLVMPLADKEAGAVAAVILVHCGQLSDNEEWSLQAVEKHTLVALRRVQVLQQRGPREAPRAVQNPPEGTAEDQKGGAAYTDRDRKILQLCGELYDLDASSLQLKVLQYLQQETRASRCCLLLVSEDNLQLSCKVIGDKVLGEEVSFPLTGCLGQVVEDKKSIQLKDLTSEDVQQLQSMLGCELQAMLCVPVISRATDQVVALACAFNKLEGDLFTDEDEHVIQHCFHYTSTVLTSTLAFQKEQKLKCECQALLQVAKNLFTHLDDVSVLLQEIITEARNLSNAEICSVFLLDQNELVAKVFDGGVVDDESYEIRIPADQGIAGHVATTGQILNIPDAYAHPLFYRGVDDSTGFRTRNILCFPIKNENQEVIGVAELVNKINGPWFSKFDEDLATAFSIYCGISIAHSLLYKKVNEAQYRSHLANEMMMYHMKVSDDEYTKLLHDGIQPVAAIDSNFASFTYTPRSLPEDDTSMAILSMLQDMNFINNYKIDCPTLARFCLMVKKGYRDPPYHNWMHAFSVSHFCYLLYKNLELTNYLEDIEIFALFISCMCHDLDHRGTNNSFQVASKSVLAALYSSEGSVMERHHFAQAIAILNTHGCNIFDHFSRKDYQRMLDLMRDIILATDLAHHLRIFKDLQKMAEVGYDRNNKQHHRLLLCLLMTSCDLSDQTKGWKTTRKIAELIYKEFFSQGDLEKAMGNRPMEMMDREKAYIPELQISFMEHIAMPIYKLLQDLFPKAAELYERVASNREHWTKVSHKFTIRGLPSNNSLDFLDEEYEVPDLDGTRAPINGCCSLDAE
Chain of hPDE10A2 (Q9Y233 267-1055): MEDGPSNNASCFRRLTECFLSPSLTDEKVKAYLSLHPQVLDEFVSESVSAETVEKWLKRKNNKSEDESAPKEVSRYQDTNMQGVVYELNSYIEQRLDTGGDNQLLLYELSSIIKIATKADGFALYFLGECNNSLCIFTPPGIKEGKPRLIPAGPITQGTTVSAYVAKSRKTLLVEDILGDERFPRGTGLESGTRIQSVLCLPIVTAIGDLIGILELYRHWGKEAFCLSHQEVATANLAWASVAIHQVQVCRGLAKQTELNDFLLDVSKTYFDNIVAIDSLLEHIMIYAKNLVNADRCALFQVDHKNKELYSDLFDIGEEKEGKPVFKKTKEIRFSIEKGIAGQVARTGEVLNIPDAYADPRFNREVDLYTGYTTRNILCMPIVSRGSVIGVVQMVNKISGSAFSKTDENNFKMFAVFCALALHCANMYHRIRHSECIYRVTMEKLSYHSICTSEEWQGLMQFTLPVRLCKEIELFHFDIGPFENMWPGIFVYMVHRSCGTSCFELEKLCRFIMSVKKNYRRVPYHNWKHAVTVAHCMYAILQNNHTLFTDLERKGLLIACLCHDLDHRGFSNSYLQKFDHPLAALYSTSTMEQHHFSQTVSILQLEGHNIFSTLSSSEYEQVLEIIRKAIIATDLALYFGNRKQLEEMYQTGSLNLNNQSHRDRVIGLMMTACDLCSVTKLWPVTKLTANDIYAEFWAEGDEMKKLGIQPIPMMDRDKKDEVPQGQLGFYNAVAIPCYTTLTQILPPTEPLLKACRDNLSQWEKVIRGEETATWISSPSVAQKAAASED

Compound | IC50 (hPDE10A2) | Emax (hPDE10A2) | hPDE3B Emax (hPDE3B) | hPDE3B pIC50 (hPDE3B) | melting point | IC50 (hPDE2A) | Emax (hPDE2A) | receptor occupancy at 10 mg/kg (PDE2A; rat, route SC (subcutaneous), 10 mg/kg, male Wistar rats, striatum, percentage occupancy, read-out: PDE2 occupancy at 10 mg/kg) | IC50 (hPDE2A; 10 μM cGMP substrate, read-out: hPDE2A pIC50 (converted)) | receptor occupancy at 10 mg/kg (PDE2A; rat, po, read-out: PDE2 occupancy at 10 mg/kg, route PO (oral), 10 mg/kg, male Wistar rats, striatum, percentage occupancy) | ED50 (PDE2A; rat, po, read-out: PDE occupancy ED50, route PO (oral), male Wistar rats, dose producing 50% occupancy) | PDE2 occupancy at 10 mg/kg (PDE2A; route SC (subcutaneous), 10 mg/kg, male Wistar rats, striatum, percentage occupancy)
C[C@@H]1CCN(c2nccc3cccnc23)C[C@H]1c1cc(C(F)F)nc2ncnn12 [Compound 23] | 661 nM | 93% | 54 | <5 | 111.34 °C | 74.1 nM | 95% | 5% | – | – | – | –
C[C@@H]1CCN(c2nccc3ccc(Cl)cc23)C[C@H]1c1cc(C(F)F)nc2ncnn12 [Compound 4] | 347 nM | 101% | 82 | 5.39 | 135.42 °C | – | 100% | – | 3.39 nM | 93% | 8.1 mg/kg | –
C[C@@H]1CCN(c2nccc3occc23)C[C@H]1c1cc(C(F)F)nc2ncnn12 [Compound 13] | 457 nM | 91% | 54 | 5.07 | 182.59 °C | 15.8 nM | 98% | – | – | – | – | 41 and 67
